Laboratory results published in patent EP0887348A1, “Bis-Indole derivatives having antimetastatic activity, a process for their preparation and pharmaceutical compositions containing them” (Boehringer Mannheim Italia S.p.A., priority 1997, dated 1998).

Test system: Lewis Lung (3LL) murine carcinoma
Type: in vivo, Female mice C57BL/6N
Experimental: The "in vivo" testing was performed against the Lewis Lung (3LL) murine carcinoma according to the following protocol.
Female mice C57BL/6N were inoculated intrafootpad with tumor fragments at day 0. At day 11 the mice were anesthetized and their tumors removed surgically proximal to the popliteale limph nodes. Animals were treated intraperitoneally with the compounds of the invention from one day after surgery until the end of the experiment, day 22 (post-surgery treatment at days 12-15, 18-22). All the compounds were suspended in 0.5% methylcellulose. The mean number of the pulmonary metastases and the mean weight thereof were determined. The toxicity of the compounds of the invention at the administered dosage was also checked, as number of deaths/total no. of treated mice by the end of the experiment.

c1cncc(C(c2c[nH]c3ccccc23)c2c[nH]c3ccccc23)c1 [example 1, 3-[bis(indol-3-yl)methyl]pyridine]
Toxicity (mouse, in vivo, ip, 200 mg/kg/day): 0/9 | Mean weight (mg) of metastases (S.D.) (pulmonary metastases, 200 mg/kg/day intraperitoneally, post-surgery treatment day 12-15, 18-22 after tumor injection, control 197.6 (55.0)): 99.2 (63.5) mg | Mean No. of metastases (S.D.) (pulmonary metastases, 200 mg/kg/day intraperitoneally, post-surgery treatment day 12-15, 18-22 after tumor injection, suspended in 0.5% methylcellulose, control 65.9 (11.7)): 31.4 (14.0)
